Measured values from patent publication US20260283988A1, “FERROPTOSIS INHIBITORS” (priority 2023, published 2026).
Where two headings read alike, the source gives them in different places.

Assays:
HT-1080 = assay: Ferroptosis inhibition, cell viability assay (CellTiter-Glo); assay type: cell-based, Human; conditions: for IC50: Homo sapiens; for cellular efficacy/toxicity window: cytotoxic IC50 versus ferroptosis inhibition IC50, 1080 min
Experimental: Cell lines: Human fibrosarcoma cell line HT-1080 and immortalized Mouse Embryonic Fibroblasts (MEF). MEFs were a gift from Daniel Krappmann, HT-1080 were purchased from ATCC and both cell lines were grown in Dulbecco's Modified Eagle's medium (Thermo Fisher Scientific, 41966-029) supplemented with 10% fetal bovine serum (FBS, Thermo Fisher Scientific), 1% Penicillin-Streptomycin (Thermo Fisher Scientific) and 1% nonessential amino acids (MEM NEAA, Thermo Fisher Scientific). Cells were grown at 37° C. and 5% CO2.
HT-1080 were seeded into 384-well plates (CulturPlates, PerkinElmer) with a density of 750 cells per well. After 24 h of growth, cells were treated with 10 or 12-point serial dilutions of compounds in indicated concentrations for 18 h. Viability was detected by using CellTiter-Glo® 2.0 Regent (Promega) according to the manufacturer's instruction and luminescence was read out in an EnVison 2104 Multilabel plate reader (PerkinElmer).

[1] = Cytotoxicity, cell viability assay; assay type: cell-based, Human; conditions: human, ht-1080 cells
Experimental: After 24 h of growth, cells were treated with 10 or 12-point serial dilutions of compounds in indicated concentrations for 18 h.

[2] = HT-1080, based on the assays of example 1, read-out: IC50 (Ferroptosis inhibition)
[3] = * = signal quenching at higher concentration, toxicity might be less than indicated, read-out: cytotoxic IC50
[4] = HT-1080, read-out: IC50 (Ferroptosis inhibition)

Row | IC50 (HT-1080; [2]) [nM] | Compound | CC50 at 18 h [1, 3] [nM] | IC50 (HT-1080; [4]) [nM] | cellular efficacy/toxicity window (HT-1080) | CC50 at 18 h [1] [nM]
1 | > 100000 | O=C1C=C(Nc2ccccc2C(=O)O)C(=O)C=C1Nc1ccccc1C(=O)O [QFerr26, 2,2-(3,6-dioxo-1,4-cyclohexadiene-1,4-diyl-diimino)dibenzoic acid] | 35400 |  |  | 
2 |  | CC(C)=CC[C@@H](O)C1=CC(=O)c2c(O)ccc(O)c2C1=O [iQFerr03, Shikonin] | 269 | > 1000 |  | 
3 |  | CC(C)=CC[C@H](O)C1=CC(=O)c2c(O)ccc(O)c2C1=O [iQFerr04, Alkannin] | 573 | > 1000 |  | 
4 |  | CC(C)=CCCC1=CC(=O)c2c(O)ccc(O)c2C1=O [iQFerr05, Deoxyshikonin] | 1620 | 287 | 6-fold | 
5 | 30 | COC1=C(OC)C(=O)C(CC=C(C)C)=C(C)C1=O [iQFerr07, Coenzyme Q1] | 10000 |  | 333-fold | 
6 |  | O=C(O)c1ccc2c(c1)C(=O)c1ccccc1C2=O [iQFerr08, Anthraquinone-2-carboxyclic acid] |  | 13000 |  | > 100000
7 | 63 | CC(=O)c1cccc(NC2=C(Cl)C(=O)c3ccccc3C2=O)c1 [iQFerr09, 2-(3-acetylanilino)-3-chloro-1,4-naphtoquinone] | 810 |  | 13-fold | 
8 | 8 | CCc1ccc(NC2=C(Cl)C(=O)c3ccccc3C2=O)cc1 [iQFerr10, 2-chloro-3-(4-ethylanilino)-1,4-naphtoquinone] | 844 |  | 105-fold | 
9 | 6 | O=C1C(Cl)=C(Nc2ccc(O)cc2)C(=O)c2ccccc21 [iQFerr11, 2-chloro-3-(4-hydroxy-phenylamino)-1,4-naphtoquinone] | 293 |  | 48-fold | 
10 | 6 | COc1ccc(NC2=C(Cl)C(=O)c3ccccc3C2=O)cc1 [iQFerr12, 2-chloro-3-(4-methoxyanilino)-1,4-naphtoquinone] | 3520 |  | 586-fold | 
11 | 3 | Cc1ccc(NC2=C(Cl)C(=O)c3ccccc3C2=O)cc1 [iQFerr13, 2-chloro-3-(4-methylanilino)-1,4-naphtoquinone] | 380 |  | 126-fold | 
12 | 1360 | O=C(O)CCCNC1=C(Cl)C(=O)c2ccccc2C1=O [iQFerr15, 4-[(3-chloro-1,4-dioxo-1,4-dihydronaphthalen-2-yl)amino]butanoic acid] | 215000 |  | 159-fold | 
13 | 4.5 | O=C1C(Cl)=C(Nc2ccccc2)C(=O)c2ccccc21 [iQFerr16, 2-anilino-3-chloro-1,4-naphtoquinone] | 279 |  | 62-fold | 
14 | 6.1 | O=C1C(Cl)=C(Nc2ccc(F)cc2)C(=O)c2ccccc21 [iQFerr17, 2-chloro-3-(4-fluoroanilino)-1,4-naphtoquinone] | 397 |  | 65-fold | 
15 | 94.1 | O=C(O)c1ccc(NC2=C(Cl)C(=O)c3ccccc3C2=O)cc1 [iQFerr18, 4-[(3-chloro-1,4-dioxo-1,4-dihydronaphthalen-2-yl)amino]benzoic acid] | 2550 |  | 27-fold | 
16 | 32.2 | CN(C)c1ccc(NC2=CC(=O)c3ccccc3C2=O)cc1 [iQFerr19, 2-[4-(dimethylamino)-anilino]-1,4-naphtoquinone] | 5850 |  | 182-fold | 

Row | IC50 (HT-1080; [2]) [nM] | Compound | CC50 at 18 h [1, 3] [nM] | IC50 (HT-1080; [4]) [nM] | cellular efficacy/toxicity window (HT-1080) | CC50 at 18 h [1] [nM]
17 | 43 | CCOc1ccc(NC2=CC(=O)c3ccccc3C2=O)cc1 [iQFerr21, 2-(4-ethoxyanilino)-1,4-naphtoquinone] | 8570 |  | 199-fold | 
18 | 15.6 | Cc1ccc(NC2=CC(=O)c3ccccc3C2=O)cc1 [iQFerr22, 2-(4-methylanilino)-1,4-naphtoquinone] | 5500 |  | 354-fold | 
19 | 3480 | O=C(O)c1ccccc1NC1=CC(=O)c2c(O)cccc2C1=O [iQFerr23] | 16400 |  | 5-fold | 
20 | > 100000 | O=C1c2ccccc2C(=O)c2c1c(-c1ccccc1)nn2-c1ccccc1 [iQFerr24, 1,3-diphenyl-1H-benzo-f-indazole-4,9-dione] |  |  |  | 
21 | 176 | Cc1ccc(NC2=CC(=O)C=CC2=O)c(C)c1 [iQFerr25, 2-(2,4-dimethylanilino)-benzo-1,4-quinone] | 759 |  | 5-fold | 
22 | 493 | CCOc1ccc(NC2=CC(=O)C=CC2=O)cc1 [iQFerr27, 2-(4-ethoxyanilino)-benzo-1,4-quinone] | 2160 |  | 4-fold | 
23 | 32.4 | O=C1C=C(Cc2ccc(F)cc2)C(=O)c2ccccc21 [iQFerr28, 2-(4-fluorobenzyl)-1,4-naphtoquinone] | 1450 |  | 45-fold | 
24 | 38.4 | Cc1ccc(CC2=CC(=O)c3ccccc3C2=O)cc1 [iQFerr30, 2-(4-methylbenzyl)-1,4-naphtoquinone] | 5060 |  | 132-fold | 
25 | 1060 | COc1ccc(CC2=CC(=O)c3ccccc3C2=O)cc1 [iQFerr31, 2-(4-methoxybenzyl)-1,4-naphtoquinone] | 8700 |  | 8-fold | 
26 | 39800 | Cc1ccc(C(C2=C(O)C(=O)c3ccccc3C2=O)c2ccccc2)cc1 (stereo not shown) [iQFerr32, 2-hydroxy-3-[(4-methylphenyl)phenyl-methyl]-1,4-naphtoquinone] | 34200 |  |  | 
27 | 7580 | CN(C)c1ccc(C(C2=C(O)C(=O)c3ccccc3C2=O)c2ccccc2)cc1 (stereo not shown) [iQFerr33, 2-[(4-dimethylamino-phenyl)phenylmethyl]-3-hydroxy-1,4-naphtoquinone] | 71800 |  | 9-fold | 
28 |  | O=C1C(O)=C(C(c2ccccc2)c2ccc(F)cc2)C(=O)c2ccccc21 (stereo not shown) [iQFerr34, 2-[(4-fluorophenyl)-phenylmethyl]-3-hydroxy 1,4-naphtoquinone] | 35000 | 71400 |  | 
29 | 7.36 | CC(=O)Nc1ccc(NC2=C(Cl)C(=O)c3ccccc3C2=O)cc1 [iQFerr36, N-{4-[(3-chloro-1,4-dioxo-1,4-dihydronaphthalen-2 yl)amino]phenyl} acetamide] | 564 |  | 77-fold | 
30 | 15.4 | Cc1ccc(NC2=CC(=O)c3ccccc3C2=O)c(C)c1 [iQFerr37, 2-[(2,4-dimethylphenyl)amino]-1,4-dihydronaphthalene-1,4-dione] | 48800 |  | 3162-fold | 
31 | 189 | Cc1ccc(N(CCCC(N)=O)C2=CC(=O)c3ccccc3C2=O)c(C)c1 [iQFerr40, 4-[(2,4-dimethylphenyl)(1,4-dioxo-1,4-dihydronaphthalen-2-yl)amino]butanamide] | 230 |  | 1,2-fold | 
32 | 463 | Cc1ccc(N(CCCC(=O)O)C2=CC(=O)c3ccccc3C2=O)c(C)c1 [iQFerr42, 4-[(2,4-dimethylphenyl)(1,4-dioxo-1,4-dihydronaphthalen-2-yl)amino]butanoic acid] | 219 |  | 0,47-fold | 
